Patent publication US20080071116A1, “Modulators of Lysophosphatidic Acid (Lpa) Signaling and the Use Thereof” (THE BOARD OF REGENTS OF THE UNIVERSITY OF TEXAS SYSTEM, priority 2004, published 2008)

Key:
[1] = test system: OVCAR3 cells; test: calcium mobilization assay in ovarian cancer OVCAR3 cells; type: cell-based, human; conditions: Homo sapiens, OVCAR-3; OVCAR3 cells; 95% confidence about 7.0 to about 11.5 nM
Method: (§1) The procedures for these calcium mobilization assays are as followed: OVCAR3 cells and PC-3 cells were cultured in RPMI 1640 medium with 10% FBS (fetal bovine serum). HT29 cells were cultured in DMEM (high glucose) medium with 10% FBS. All cells were cultured at about 37° C. in a humidified atmosphere with 5% CO2. After starvation in serum-free medium for about 12-24 hours, cells were harvested and loaded with about 1 μM of Indo-1 AM in serum-free medium for about 45 min at 37° C. Cells were washed in PBS and resuspended at 2×10^6 cells/ml in a [Ca^2+]i assay buffer (Sodium chloride, NaCl, about 140 mM, potassium chloride, KCl, about 2 mM, magnesium chloride, MgCl2, about 1 mM, calcium chloride, CaCl2, about 2 mM, in about 25 mM HEPES buffer at pH 7.4 with about 10 mM of glucose). Cytoplasmic [Ca^2+]i was determined at an excitation wavelength of about 331 nm and an emission wavelength of 410 nm using a fluorescence spectrophotometer (Hitachi, F-4000). Approximately 3×10^6 cells were used for [Ca^2+]l determination in a stirred quartz cuvette kept at about 37° C. OMPT or 18:1 LPA was dissolved in about 0.1% BSA/PBS solution and applied immediately to the cells. To test other LPA derivatives of the invention, cells were exposed to the derivatives for about 3 minutes or for a period of various times in time course related experiments before a LPA agonist, such as 18:1 LPA, OMPT, or other LPAs was applied into the cuvette.
(§2) The concentration of calcium mobilization giving the half-maximal response (EC50) was obtained from the concentration-response curve fitted to a sigmoidal logistic equation, with the maximal calcium response set to 100% using the GraphPad Prism. Maximal response value is expressed as mean +/−s.e.m. EC50 value is expressed with 95% confidence.

[2] = test system: PC-3 cells; test: calcium mobilization assay in androgen insensitive prostate cancer PC-3 cells; type: cell-based, human; conditions: Homo sapiens
Method: as §1, §2

[3] = biological target: T1, LPA3 receptor (Homo sapiens, UniProt Q9UBY5); test: GTP[γ-35S] binding assay, HEK293 T membranes, LPA3; type: biochemical; conditions: HEK293 transfected with LPA3, FIG. 59C
T1 construct: expressed in transfected cells; host or cells: HEK293 T cells (crude microsomal membranes)
T1 sequence (Q9UBY5 whole entry): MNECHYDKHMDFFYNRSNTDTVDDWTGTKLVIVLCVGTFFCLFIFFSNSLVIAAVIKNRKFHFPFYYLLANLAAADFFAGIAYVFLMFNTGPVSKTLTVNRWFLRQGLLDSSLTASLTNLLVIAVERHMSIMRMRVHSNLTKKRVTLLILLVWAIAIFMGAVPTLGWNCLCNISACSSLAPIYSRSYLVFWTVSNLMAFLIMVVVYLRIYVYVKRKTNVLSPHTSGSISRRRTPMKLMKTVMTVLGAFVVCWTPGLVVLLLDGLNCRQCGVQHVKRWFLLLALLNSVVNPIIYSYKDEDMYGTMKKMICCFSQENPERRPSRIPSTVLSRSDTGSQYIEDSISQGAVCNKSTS
T1 sequence (P04897 2-355 partner limits assumed): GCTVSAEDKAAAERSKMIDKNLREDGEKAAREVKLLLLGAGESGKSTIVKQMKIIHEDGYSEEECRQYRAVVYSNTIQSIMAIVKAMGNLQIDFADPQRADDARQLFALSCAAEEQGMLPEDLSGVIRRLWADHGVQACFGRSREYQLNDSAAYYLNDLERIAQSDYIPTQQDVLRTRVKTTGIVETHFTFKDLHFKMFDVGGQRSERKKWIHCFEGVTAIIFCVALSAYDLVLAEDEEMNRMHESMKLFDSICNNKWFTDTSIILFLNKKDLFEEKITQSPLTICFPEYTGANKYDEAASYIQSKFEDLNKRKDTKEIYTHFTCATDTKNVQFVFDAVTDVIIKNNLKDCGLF
T1 sequence (P62871 2-340 partner limits assumed): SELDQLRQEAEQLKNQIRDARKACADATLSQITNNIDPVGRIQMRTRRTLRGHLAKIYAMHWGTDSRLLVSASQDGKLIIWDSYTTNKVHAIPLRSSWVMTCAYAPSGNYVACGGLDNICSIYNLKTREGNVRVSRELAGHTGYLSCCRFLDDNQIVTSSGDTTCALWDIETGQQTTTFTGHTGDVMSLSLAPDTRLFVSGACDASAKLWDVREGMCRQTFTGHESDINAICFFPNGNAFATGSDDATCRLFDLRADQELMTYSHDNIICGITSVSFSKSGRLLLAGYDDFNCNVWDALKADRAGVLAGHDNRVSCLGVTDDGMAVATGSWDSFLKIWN
T1 sequence (P63212 2-68 partner limits assumed): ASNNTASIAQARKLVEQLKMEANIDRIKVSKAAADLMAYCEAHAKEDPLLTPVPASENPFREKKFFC
Method: (§3) OMPT also enhances GTP [γ-^35S] binding in the cell membrane of HEK293 T cells expressing LPA3. The procedures for these GTP [γ-^35S] binding assays involve co-transfection of HEK293 T cells with expression vectors encoding one of the receptors for LPA (LPA1, LPA2, or LPA3) or S1P (S1P3/Edg3) by calcium phosphate precipitation, together with plasmids encoding three G proteins (rat Gi2α, cow β1, and cow γ2). After about 48 hours, cells were harvested and crude microsomal membranes were prepared. Membranes containing about 5 μg of protein were incubated in 0.1 ml of GTP-binding buffer (50 mM Hepes, 100 mM NaCl, 10 mM MgCl2, pH7.5) having 5 μg of saponin, 0.1% fatty acid-free BSA, 10 μM GDP, 0.1 nM GTP[γ-^35S] (1200 Ci/mmole) together with indicated concentrations of LPA or OMPT for about 30 min at 30° C. Membranes were collected using a 96-well Brandel Cell Harvester (Gaithersburg, Md.), and bound radionuclide was determined using a Packard TopCount liquid scintillation counter.

[4] = biological target: T2, S1P3 receptor (Homo sapiens, UniProt Q99500); test: GTP[γ-35S] binding assay, HEK293 T membranes, S1P3 control; type: biochemical; conditions: cells transfected with S1P3, negative control, FIG. 59D
T2 construct: expressed in transfected cells; host or cells: HEK293 T cells (crude microsomal membranes)
T2 sequence (Q99500 whole entry): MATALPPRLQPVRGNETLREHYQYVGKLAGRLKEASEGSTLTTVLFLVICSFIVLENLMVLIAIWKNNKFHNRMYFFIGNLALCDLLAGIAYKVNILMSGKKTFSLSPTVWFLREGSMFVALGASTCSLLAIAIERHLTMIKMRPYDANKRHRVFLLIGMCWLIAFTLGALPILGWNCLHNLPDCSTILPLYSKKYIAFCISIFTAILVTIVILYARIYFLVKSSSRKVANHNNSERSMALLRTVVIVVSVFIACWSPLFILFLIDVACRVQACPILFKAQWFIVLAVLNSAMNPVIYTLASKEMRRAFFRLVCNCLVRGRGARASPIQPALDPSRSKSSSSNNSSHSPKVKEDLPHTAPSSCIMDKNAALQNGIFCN
Method: as §3

[5] = test system: ERK1/2; test: ERK1/2 (p42/p44-MAPK) phosphorylation immunoblot in prostate cancer cells; type: cell-based, human; conditions: PC-3 and DU145 cells
Method: (§4) The cells were then lysed in SDA sample buffer or ice-cold X-100 lysis buffer (1% Triton X-100, 50 mM HEPES [pH7.4], 150 mM NaCl, 1.5 mM MgCl2, 1 mM EGTA, 10% glycerol, 100 mM NaF, 10 mM Na pyrophosphate, and 1 mM aprotinin). Total cellular protein was resolved by SDS/PAGE, transferred to immobilon [poly (vinylidene difluoride)], and immunoblotted with antibodies following the protocols provided by manufactures. Immunocomplexes were visualized with an enhanced chemiluminescence detection kit (Amersham Pharmacia) using horseradish peroxidase-conjugated secondary antibodies (Bio-Rad).

[6] = test system: vasodilator-stimulated protein (VASP); test: VASP phosphorylation in PC-3 cells; type: cell-based, human
Method: as §4
To determine the mechanisms regulating LPA-induced cell migration, actin filament binding proteins that link receptor signaling to lamellipodia formation were evaluated.

[7] = test system: PKA; test: PKA activation in PC-3 cells; type: cell-based, human
[8] = test system: PC-3 cells; test: cellular proliferation and growth factor withdrawal-induced apoptosis; type: cell-based, human
[9] = biological target: T3, LPA2 receptor (Homo sapiens, UniProt Q9HBW0); test: HA-Erk1 phosphorylation in HEK 293 T cells transfected with LPA2; type: cell-based; parameters: expressed in transfected cells; conditions: LPA2 transfected HEK 293 T; 0.01, 0.1, or 1 μM
T3 sequence (Q9HBW0 whole entry): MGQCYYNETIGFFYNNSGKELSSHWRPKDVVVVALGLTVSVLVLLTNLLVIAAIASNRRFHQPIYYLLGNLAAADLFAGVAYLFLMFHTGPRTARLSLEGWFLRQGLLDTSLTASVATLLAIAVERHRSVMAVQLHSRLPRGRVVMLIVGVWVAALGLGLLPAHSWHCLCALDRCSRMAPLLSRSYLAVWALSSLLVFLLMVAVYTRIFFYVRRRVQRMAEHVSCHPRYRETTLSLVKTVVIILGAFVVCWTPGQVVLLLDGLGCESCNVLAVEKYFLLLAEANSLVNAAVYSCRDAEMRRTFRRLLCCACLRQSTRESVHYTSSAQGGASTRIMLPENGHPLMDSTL
Description: (§5) We have also tested kinase activation by the LPA3 receptor subtype using OMPT as a tool. We determined whether activation of the LPA3 receptor by OMPT can be linked to ERK activation (related to MAP kinase signaling pathway) in mammalian cells, HEK 293 T cells, by co-transfecting hemagglutinin (HA)-tagged Erk1 (HA-Erk1) with either a control vector or an expression vector having LPA1, LPA2, or LPA3. […] There is no phosphorylation of HA-Erk1 at lower concentration of LPA or OMPT in the absence of LPA receptors. […] Thus, the data confirmed that OMPT, an LPA derivative, is a selective agonist for LPA3 receptor subtype, capable of inducing MAPK activation.

[10] = biological target: T3, LPA2 receptor; test: calcium mobilization in Sf9 insect cells expressing LPA2; type: cell-based; parameters: expressed in transfected cells; host or cells: Sf9 insect cells
[11] = biological target: LPA1 receptor (Homo sapiens, UniProt Q92633); test: HA-Erk1 phosphorylation in HEK 293 T cells transfected with LPA1; type: cell-based; parameters: FLAG; expressed in transfected cells; host or cells: HEK 293 T cells; conditions: LPA1 transfected HEK 293 T; 0.01, 0.1, or 1 μM
LPA1 receptor, sequence (Q92633 whole entry): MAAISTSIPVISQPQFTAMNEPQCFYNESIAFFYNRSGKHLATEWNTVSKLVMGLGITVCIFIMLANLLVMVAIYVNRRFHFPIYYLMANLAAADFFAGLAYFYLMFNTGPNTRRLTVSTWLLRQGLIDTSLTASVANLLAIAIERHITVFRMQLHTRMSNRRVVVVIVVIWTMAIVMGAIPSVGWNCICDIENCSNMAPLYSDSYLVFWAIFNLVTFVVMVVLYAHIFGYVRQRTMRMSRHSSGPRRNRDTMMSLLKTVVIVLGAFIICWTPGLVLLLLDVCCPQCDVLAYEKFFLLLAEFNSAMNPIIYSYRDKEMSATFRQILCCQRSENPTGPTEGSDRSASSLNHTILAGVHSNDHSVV
Description: as §5

[12] = biological target: T3, LPA2 receptor; test: GTP[γ-35S] binding assay, HEK293 T membranes, LPA2; type: biochemical; parameters: expressed in transfected cells; host or cells: HEK293 T cells (crude microsomal membranes); conditions: HEK293 transfected with LPA2, FIG. 59B
Method: as §3

CCCCCCCC/C=C\CCCCCCCC(=O)OCC(COP(O)(O)=S)OC (racemic) [OMPT, 1-oleoyl-sn2-O-methyl-rac-glycero-3-phosphothionate]
EC50 [1]: ~9 nM | EC50 [2]: ~117 nM | activation in GTP[γ-35S] binding assay [3]: activates | activation in GTP[γ-35S] binding assay [4]: does not activate | activation of p42/p44-MAPK [5]: efficiently activates | induction of VASP phosphorylation at Ser157 PKA site [6]: Neither OMPT nor EGF increased phosphorylation of VASP | activation of PKA [7]: does not | cellular proliferation and prevention of growth factor withdrawal-induced apoptosis [8]: increase cellular proliferation and prevent growth factor withdrawal-induced apoptosis | HA-Erk1 phosphorylation [9]: did not increase HA-Erk1 phosphorylation | calcium mobilization ([10]; Sf9 cells expressing LPA2, FIG. 58B): did not induce calcium mobilization | EC50 ([10]; Sf9 cells expressing LPA2, read-out: EC50 of increase in intracellular calcium concentration): > 10000 nM | HA-Erk1 phosphorylation [11]: did not increase HA-Erk1 phosphorylation | activation in GTP[γ-35S] binding assay [12]: does not activate
